Measurements taken from patent US20120207763A1, “PYRROLOPYRIMIDINE COMPOUNDS AND THEIR USES” (ASTEX THERAPEUTICS LIMITED, priority 2006, published 2012).

These molecules were tested against CDK2/Cyclin-A kinase complex (Homo sapiens, UniProt P24941) (assay: CDK2 IMAP fluorescence polarization assay). Conditions: Table C; read-out: CDK2 IC50.
Type: biochemical
Text: In order to test the CDK2 activity of the compounds of the invention, the CDK2 assay is a flourescence polarization assay, where the enzyme is a purified active CDK2/Cyclin-A kinase complex and the substrate is a synthesized peptide derived from Histone H1. This assay utilizes the IMAP technology from Molecular Devices. The active CDK2/Cyclin-A complex phosphorylates the peptide substrate, which is conjugated with the TAMRA tag. The phosphorylated site is then recognized by a metal containing molecule that interacts with the TAMRA tag to induce a high flourescence polarization. The compounds that inhibit the CDK2 kinase activity would inhibit the flourescence output of the assay.

IC50	SMILES
> 10 µM	CC1CN(C2CCCC2)c2nc(Nc3ccc(N4CCN(C)CC4)cc3)ncc21 (stereo not drawn)

Same assay, conditions: Table E; read-out: CDK2cyA IMAP/IC50 [umol l − 1]

SMILES	IC50
CCC(CC)n1ccc2cnc(Nc3ccc(N4CCN(C(C)=O)CC4)cc3)nc21 [Example 201]	< 10 µM
CCC(C(=O)OC)n1ccc2cnc(Nc3ccc(N4CCN(C(C)=O)CC4)cc3)nc21 (stereo not drawn) [Example 219]	< 10 µM
CCC(C)n1ccc2cnc(Nc3ccc(N4CCN(C(C)=O)CC4)cc3)nc21 (stereo not drawn) [Example 222]	< 10 µM
CCC(C(N)=O)n1ccc2cnc(Nc3ccc(N4CCN(C(C)=O)CC4)cc3)nc21 (stereo not drawn) [Example 227]	< 10 µM
CC(=O)N1CCN(c2ccc(Nc3ncc4ccn(C5CCOCC5)c4n3)cc2)CC1 [Example 228]	< 10 µM
CC(=O)N1CCN(c2ccc(Nc3ncc4ccn(C5CCC(C)CC5)c4n3)cc2)CC1 (stereo not drawn) [Example 236]	< 1 µM
CCC(=O)N1CCN(c2ccc(Nc3ncc4ccn(C(CC)CC)c4n3)cc2)CC1 [Example 237]	< 10 µM
CN(C)CC1CCC(n2ccc3cnc(Nc4ccc(N5CCNCC5)cc4)nc32)C1 (stereo not drawn) [Example 249]	< 10 µM
Cc1cn(C2CC2)c2nc(Nc3ccc(N4CCN(C)CC4)cc3)ncc12 [Example 270]	> 10 µM
Cc1cn(C2CC2)c2nc(Nc3ccc(N4CCNCC4)cn3)ncc12 [Example 271]	> 10 µM
CC(=O)N1CCN(c2ccc(Nc3ncc4c(C)cn(C5CCCCC5)c4n3)cc2)CC1 [Example 274]	> 10 µM
Cc1cn(C2CCCC2)c2nc(Nc3ccc(N4CCNCC4)nc3)ncc12 [Example 283]	> 10 µM
Cc1cn(C2CCCC2)c2nc(Nc3ccc(N4CCNCC4)c(F)c3)ncc12 [Example 285]	< 10 µM
Cc1cn(C2CCCC2)c2nc(Nc3ccc(N4CCN(S(C)(=O)=O)CC4)cc3)ncc12 [Example 286]	< 10 µM
Cc1cn(C2CCCC2)c2nc(Nc3ccc(S(N)(=O)=O)cc3)ncc12 [Example 288]	< 1 µM
Cc1cn(C2CCCC2)c2nc(Nc3ccncc3)ncc12 [Example 298]	< 1 µM
Cc1cn(C2CCCC2)c2nc(Nc3cccnc3)ncc12 [Example 300]	< 1 µM
Cc1cn(-c2ccccn2)c2nc(Nc3ccc(N4CCNCC4)cn3)ncc12 [Example 320, (5-Methyl-7-pyridin-2-yl-7H-pyrrolo[2,3-d]pyrimidin-2-yl)-(5-piperazin-1-yl-pyridin-2-yl)-amine]	> 10 µM
Cc1cn(-c2nccs2)c2nc(Nc3ccc(N4CCNCC4)cn3)ncc12 [Example 321]	> 10 µM
Cc1cn(-c2cccnc2)c2nc(Nc3ccc(N4CCNCC4)cc3)ncc12 [Example 322]	> 10 µM

Other lines, results leading:

IC50	SMILES
< 10 µM	CCC(C(=O)OC)n1ccc2cnc(Nc3ccc(N4CCNCC4)cc3)nc21 (stereo not drawn) [Example 221]
> 10 µM	CCOC(=O)C(C(C)C)n1ccc2cnc(Nc3ccc(N4CCN(C(C)=O)CC4)cc3)nc21 (stereo not drawn) [Example 223]
> 10 µM	CC(=O)N1CCN(c2ccc(Nc3ncc4ccn(C5CCCCC5=O)c4n3)cc2)CC1 (stereo not drawn) [Example 226]
> 10 µM	CCC(C(N)=O)n1ccc2cnc(Nc3ccc(N4CCNCC4)cc3)nc21 (stereo not drawn) [Example 234]
> 10 µM	c1cc(N2CCNCC2)ccc1Nc1ncc2ccn(C3CCOCC3)c2n1 [Example 235]
< 10 µM	CC(=O)N1CCN(c2ccc(Nc3ncc4ccn(C5CCCC(C)C5)c4n3)cc2)CC1 (stereo not drawn) [Example 241]
> 10 µM	CC(=O)N1CCN(c2ccc(Nc3ncc4ccn(C5CCCC5)c4n3)nc2)CC1 [Example 252]
< 10 µM	CN1CCN(c2ccc(Nc3ncc4ccn(C5CCCC5)c4n3)cc2)CC1 [Example 253]
< 1 µM	CC(=O)N1CCN(c2ccc(Nc3ncc4ccn(C5CCCC5)c4n3)cc2)CC1 [Example 254]
> 10 µM	CCCCNC(=O)c1cc2cnc(Nc3ccc(N4CCNCC4)cc3)nc2n1C(CC)CC [Example 336]
> 10 µM	CCC(CC)n1c(C(=O)N2CCCC2)cc2cnc(Nc3ccc(N4CCNCC4)cc3)nc21 [Example 337]
> 10 µM	CCC(CC)n1c(C(=O)N2CCOCC2)cc2cnc(Nc3ccc(N4CCNCC4)cc3)nc21 [Example 343]
